Data from PMC12409542, “Synthesis and Computational Evaluation of N‑Acetyl-Derived Schiff Bases Incorporating 1,2,4-Triazoles for Dual Inhibition of Prostate Cancer Cells and Carbonic Anhydrases” (ACS Omega, 2025).

What was measured:
[1] = tested on: DU145 cells; assay: Cell viability assay (CVDK-8), DU145 cells; type: cell-based, human; settings: for effect on viability of cancer cells (in words): DU145, 1, 10 and 100 μM, 24 h; for IC50: Homo sapiens, DU-145, viability of DU145 cells, 24 h treatment, CVDK-8; for selectivity indices (SI) PNT1a IC50/DU145 IC50: ratio PNT1a IC50/DU145 IC50, 24 h
Description: (§1) In this research, the inhibitory effects of the compounds under investigation on cell viability were assessed using two distinct human cell lines: specifically, the DU145 cell line, representative of prostate cancer, and the PNT1a cell line, which serves as a model for normal human prostate epithelial cells. Cells were routinely cultured in RPMI-1640 medium supplemented with 10% fetal bovine serum, 1% penicillin/streptomycin (Gibco), and 1% L-glutamine. All cells were maintained in a 5% CO2 humidified incubator at 37 °C.
(§2) Effects of all compounds synthesized in this study on the viability of PNT1a and DU145 cells were analyzed using the Cell Viability Detection Kit-8 (CVDK-8, Ecotech Biotechnology, Erzurum, Turkey). In brief, cells were seeded at a concentration of 3 × 10^3 cells per well within 100 μL medium in 96 well plates. Then, cells were treated with compounds at concentrations of […] for 24 h. After treatment with the test compounds, the medium was removed and fresh RPMI-1640 medium containing 1/10 CVDK- 8 reagent was added to each well, and plates were incubated for 3 h at 37 °C protected from light. After the incubation period, optical densities were measured using Epoch spectrophotometer at 450 nm. For cell culture, experiments were performed in triplicate, and data were analyzed by t tests.

[2] = tested on: PNT1a cells; assay: Cell viability assay (CVDK-8), PNT1a cells; type: cell-based; settings: Homo sapiens, viability of PNT1a normal prostate epithelial cells, 24 h treatment
Description: as §1, §2

[3] = target: hCA I (Homo sapiens, UniProt P00915); assay: hCA I inhibition, spectrophotometric esterase method (p-nitrophenyl acetate); type: biochemical; settings: p-nitrophenyl acetate substrate, 348 nm; for Ki: read-out: K i (μM) hCA I
Chain of hCA I (P00915 whole entry): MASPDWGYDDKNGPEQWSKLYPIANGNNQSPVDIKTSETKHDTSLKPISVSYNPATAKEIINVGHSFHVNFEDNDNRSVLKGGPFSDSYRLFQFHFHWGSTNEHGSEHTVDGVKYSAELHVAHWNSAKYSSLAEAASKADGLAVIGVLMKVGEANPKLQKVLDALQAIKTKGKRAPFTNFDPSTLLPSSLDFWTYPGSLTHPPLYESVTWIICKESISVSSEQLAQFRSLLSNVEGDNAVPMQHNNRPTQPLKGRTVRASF
Description: (§3) In this study, Sepharose-4B L-Tyrosine sulfanilamide affinity chromatography was employed to purify both CA isozymes in a single phase. A previous process was used to manufacture the column chemical material for affinity chromatography containing Sepharose-4B-L-Tyrosine-Sulfanilamide. As previously shown, the protein molecules’ flow in the column eluates was measured spectrophotometrically at 280 nm. […] The substrate used, p-nitrophenyl acetate, was enzymatically converted by both isoenzymes into p-nitrophenolate ions.

[4] = target: hCA II (Homo sapiens, UniProt P00918); assay: hCA II inhibition, spectrophotometric esterase method (p-nitrophenyl acetate); type: biochemical; settings: p-nitrophenyl acetate substrate, 348 nm; for Ki: read-out: K i (μM) hCA II
Description: as §3

IC50 [1] [µM]	selectivity indices (SI) PNT1a IC50/DU145 IC50 [1]	IC50 [3] [µM]	Ki [3] [µM]	IC50 [4] [µM]	Ki [4] [µM]	Compound	effect on viability of cancer cells (in words) [1]	IC50 [2] [µM]
49.8 ± 11.1	2.28	7.12	9.26 ± 0.88	10.6	11.7 ± 1.01	CC(=O)n1nc(Cc2ccc(C)cc2)n(N=Cc2cccc(OS(=O)(=O)c3ccc(C)cc3)c2)c1=O [6d, 3-[((1-Acetyl-3-p-methylbenzyl-5-oxo-1,5-dihydro-4H-1,2,4-triazol-4-yl)-imino)-methyl]-phenyl-4-methylbenzenesulfonate]	did not suppress the viability of cancer cells in low concentrations	> 100
> 100	1.22	10.2	13.1 ± 1.02	14.5	17.3 ± 2.41	CC(=O)n1nc(Cc2ccccc2)n(N=Cc2cccc(OS(=O)(=O)c3ccc(C)cc3)c2)c1=O [6c, 3-[((1-Acetyl-3-benzyl-5-oxo-1,5-dihydro-4H-1,2,4-triazol-4-yl)-imino)-methyl]-phenyl-4-methylbenzenesulfonate]	did not suppress the viability of cancer cells in low concentrations	> 100
> 100	5.23	12.3	14.2 ± 1.1	16.8	18.1 ± 2.47	CC(=O)n1nc(Cc2ccc(Cl)cc2)n(N=Cc2cccc(OS(=O)(=O)c3ccc(C)cc3)c2)c1=O [6e, 3-[((1-Acetyl-3-p-chlorobenzyl-5-oxo-1,5-dihydro-4H-1,2,4-triazol-4-yl)-imino)-methyl]-phenyl-4-methylbenzenesulfonate]	decreased the viability of cancer cells in a dose-dependent manner	> 100

More lines, now with the values behind:

Compound	IC50 [1] [µM]	selectivity indices (SI) PNT1a IC50/DU145 IC50 [1]	IC50 [3] [µM]	Ki [3] [µM]	IC50 [4] [µM]	Ki [4] [µM]	effect on viability of cancer cells (in words) [1]	IC50 [2] [µM]
CC(=O)n1nc(C)n(N=Cc2cccc(OS(=O)(=O)c3ccc(C)cc3)c2)c1=O [6a, 3-[((1-Acetyl-3-methyl-5-oxo-1,5-dihydro-4H-1,2,4-triazol-4-yl)-imino)-methyl]-phenyl-4-methylbenzenesulfonate]	73.2 ± 11.5	6.74	11.4	14 ± 1.15	15.3	19.7 ± 2.48	decreased the viability of cancer cells in a dose-dependent manner	> 100
CCc1nn(C(C)=O)c(=O)n1N=Cc1cccc(OS(=O)(=O)c2ccc(C)cc2)c1 [6b, 3-[((1-Acetyl-3-ethyl-5-oxo-1,5-dihydro-4H-1,2,4-triazol-4-yl)-imino)-methyl]-phenyl-4-methylbenzenesulfonate]	–	–	13.7	16.7 ± 2.14	18.4	21.9 ± 3.48	–	–
